Assay results reported in patent US7955425B2, “Ink composition for ink jet recording” (Seiko Epson Corporation, priority 2008, dated 2011).

Tests used:
[1] = Surface tension of aqueous solution; format: physicochemical
[2] = Evaluation of solubility of poorly water-soluble alkane diol; format: physicochemical; conditions: for Ability to dissolve 1,2-octanediol: two-component aqueous alcohol solution with 10% by weight 1,2-octanediol and 10% by weight 1,2-hexanediol, FIG. 1
Protocol: An aqueous solution containing 10% by weight of 1,2-octanediol was prepared using 1,2-octanediol as a poorly water-soluble alkane diol.
Five alcohol solvents, 1,6-hexanediol (hereinafter referred to as 1,6-HED), 3-methyl-1,5-pentanediol (hereinafter referred to as 3 MPED), 1,5-pentanediol (hereinafter referred to as 1,5-PED), 1,2-hexanediol (hereinafter referred to as HED), and 2,2′-dimethylpropanediol (hereinafter referred to as 2 MPRD) were added to 10 g of the aqueous solution until the aqueous solution became transparent.
In place of the aqueous solution described above, an aqueous solution that contains 10% by weight of 1,2-octanediol as the poorly water-soluble alkane diol and 10% by weight of 1,2-hexanediol as the water-soluble 1,2-alkane diol was prepared, and the alcohol solvents were added to the aqueous solution until the aqueous solution became transparent, as described above.

SMILES	surface tension ([1]; 15% aqueous solution) [mN/m]	Ability to dissolve 1,2-octanediol [2]	other results
CCCCC(O)CO (stereo not shown) [1,2-hexanediol]	26.7		
CCCCCCC(O)CO (stereo not shown) [1,2-octanediol]			Solubility of 1,2-octanediol in water ([2]; aqueous solution containing 10% by weight of 1,2-octanediol): incompletely dissolved
OCCCCCO [1,5-PED, 1,5-pentanediol]		higher ability to dissolve 1,2-octanediol than the addition of HED alone	
OCCCCCCO [1,6-HED, 1,6-hexanediol]		higher ability to dissolve 1,2-octanediol than the addition of HED alone	
CC(C)(CO)CO [2 MPRD, 2,2′-dimethylpropanediol]		higher ability to dissolve 1,2-octanediol than the addition of HED alone	
CC(CO)CO [2-methyl-1,3-propanediol]			surface tension ([1]; 10% aqueous solution): 57.5 mN/m
CC(CCO)CCO [3 MPED, 3-methyl-1,5-pentanediol]		higher ability to dissolve 1,2-octanediol than the addition of HED alone	
CC(C)(C)C(O)CO (stereo not shown) [3,3-dimethyl-1,2-butanediol]	26.1		
CC(CCO)CCO [3-methyl-1,5-butanediol]			surface tension ([1]; 10% aqueous solution): 45.8 mN/m
CC(C)CC(O)CO (stereo not shown) [4-methyl 1,2-pentanediol]	25.4		
